The text below walks through data of patent publication US9688630B2, “3,3′-disubstituted indolines as inhibitors of cholesterol ester transfer protein” (Merck Sharp & Dohme Corp., priority 2013, dated 2017).

As a reminder, the IC50 is the concentration that inhibits the measured activity by half.

In assay [1] the target is T1, endogenous CETP from human serum (Homo sapiens, UniProt P11597).
T1 construct: yielding a concentration of approximately 15 nM endogenous CETP in the assay; from tissue; host or cells: human serum
T1 sequence (P11597 18-493): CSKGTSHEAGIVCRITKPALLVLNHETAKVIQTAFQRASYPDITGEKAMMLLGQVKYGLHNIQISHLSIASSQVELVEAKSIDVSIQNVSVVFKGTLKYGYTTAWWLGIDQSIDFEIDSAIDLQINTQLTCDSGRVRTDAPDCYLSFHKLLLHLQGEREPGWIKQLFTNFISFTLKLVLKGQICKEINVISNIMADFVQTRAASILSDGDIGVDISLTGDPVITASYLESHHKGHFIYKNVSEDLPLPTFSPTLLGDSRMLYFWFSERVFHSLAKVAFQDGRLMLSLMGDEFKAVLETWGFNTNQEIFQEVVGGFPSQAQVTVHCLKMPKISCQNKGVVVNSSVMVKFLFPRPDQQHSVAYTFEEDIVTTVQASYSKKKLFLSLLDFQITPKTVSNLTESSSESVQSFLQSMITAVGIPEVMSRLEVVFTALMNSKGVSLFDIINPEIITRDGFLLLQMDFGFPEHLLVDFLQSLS
The assay is described as follows: RTA assay using endogenous CETP from serum (95% RTA). In kind it is biochemical. The following applies: 95% human serum. The method, then:
(§1) In Vitro Radioactive Assays of CETP-Catalyzed CE and TG Transfer (RTA Assay)
(§2) Reagents and sources are: [3H] cholesteryl oleate (GE #TRK.886), [3H] Triolein (Perkin-Elmer NET-431), Butylated hydroxyl toluene (Aldrich, #D4740-4), DOPC (Sigma, #P6354), Sodium Bromide (Fisher scientific #S255-500), PEG 8000 (Fisher, #BP233-1), and human HDL (Intracel Corp #RP-036).
(§3) An in vitro assay for determining IC50's to identify compounds that inhibit CETP transfer activity is performed based on a modification of a published method (Morton and Zilversmit, (1981) A plasma inhibitor of triglyceride and cholesteryl ester transfer activities, J. Biol. Chem. 256(23), 11992-11995). The ability of inhibitors to alter CETP activity is performed using two different assays: one using recombinant CETP and one using an endogenous plasma source of CETP. Both assays measure the transfer of [3H] cholesteryl oleate or [3H] triolein from exogenous LDL to HDL.
(§4) Radiolabeled donor particles are generated by first combining 100 μl of 200 μM butylated hydroxyl toluene in CHCl3, 216 μL of 21.57 mM DOPC in EtOH, and either 500 μCi [3H]-triolein (Perkin Elmer #NET-431) or 500 μCi [3H]-cholesteryl oleate (GE #TRK886) in a glass tube. Reagents are mixed, dried under nitrogen, and then resuspended in 2 mL of 50 mM Tris, 27 μM EDTA at pH 7.4. After a brief vortex, the solution is sonicated until clear and mixed with 20 mL of fresh human serum. The mixture is incubated overnight at 37° C. The [3H] labeled LDL substrate is separated at 1.063 g/ml density by sequential ultracentrifugal flotation in NaBr according to the method of Havel, Eder, et al., 1955, and Chapman, Goldstein, et al., 1981. Once isolated the particles are dialyzed 3× in CETP buffer (50 mM Tris, pH 7.4, 100 mM NaCl, 1 mM EDTA). Human HDL is purchased from Intracel and used as the acceptor particles.
(§5) Transfer assays are performed in a 96-well v-bottom polypropylene plate. For the RTA using recombinant CETP (2% RTA), an assay cocktail is prepared with the final concentrations 128 μg/mL HDL, 20 nM rCETP, 2% human serum, and 1×CETP buffer. 1 μL of each test compound diluted in DMSO is added to 47 μL of assay cocktail per well and incubated at 37° C. for 1 hour. To initiate the transfer reaction, 2 μL radiolabeled LDL is added. After an additional 60 min of incubation at 37° C., the transfer action is terminated by precipitation of LDL with an equal volume of 20% W/V PEG 8000. The plates are centrifuged at 2000 rpm for 30 minutes at 4° C. A 40 μL aliquot of the HDL-containing supernatant is transferred to a Packard Optiplate™ with 200 μL of MicroScint™ 20. After mixing, plates are counted by liquid scintillation. Counts present in the supernatant for blanks (wells containing only HDL acceptor, CETP buffer and DMSO) are subtracted from those containing test compounds and used to correct for non-specific transfer.
For the transfer assay using endogenous CETP from serum (95% RTA), the same procedure is used except that human serum is added such that a final concentration of serum of 95% of the total assay volume is achieved, yielding a concentration of approximately 15 nM endogenous CETP in the assay. This is then combined with HDL and CETP buffer and the reaction proceeds as above and is terminated as described.
(§6) Comparison of the counts of samples with inhibitors to an uninhibited (DMSO only) positive control yield a percent inhibition. A plot of percent inhibition vs. log of inhibitor concentration, fit to a Sigmoidal 4 parameter equation is used to calculate IC50.

In another assay the target is T2, recombinant CETP (Homo sapiens, UniProt P11597).
T2 sequence (P11597 18-493): T1 sequence (P11597 18-493)
The assay can be described thus: RTA assay using recombinant CETP (2% RTA). In kind it is biochemical. The following applies: 2% human serum. The protocol:
as §1, §2, §3, §4, §5, §6

For `O[C@H](CN1CC(Cc2cccc(N3CC(F)(F)C3)c2)(c2cccc(OC(F)(F)F)c2)c2ccccc21)C(F)(F)F` (stereo partly drawn) [Example 48, (2R)-3-(3-(3-(3,3-difluoroazetidin-1-yl)benzyl)-3-(3-(trifluoromethoxy)phenyl)indolin-1-yl)-1,1,1-trifluoropropan-2-ol], the IC50 in assay [1] worked out at 246 nM; at recombinant CETP it was 83 nM.

As to `CCOc1cc(C2(Cc3cccc(OC(F)(F)F)c3)CN(C[C@@H](O)C(F)(F)F)c3ccccc32)ccn1` (some centres unmarked) [Example 21], the IC50 is 283 nM in assay [1] and 60 nM on recombinant CETP.

In the case of `O[C@H](CN1CC(Cc2cccc(OC(F)(F)F)c2)(c2cccc(OC(F)(F)F)c2)c2cccc(F)c21)C(F)(F)F` (some centres unmarked) [Example 12], the IC50 was 222 nM in assay [1] and 67 nM at recombinant CETP.

Consider `O[C@H](CN1CC(Cc2ccccc2)(c2cccc(OC(F)(F)F)c2)c2ccccc21)C(F)(F)F` (some centres unmarked) [Example 2], for which the IC50 was 746 nM in assay [1] and 238 nM at recombinant CETP.

With `Cc1cccc2c1N(C[C@@H](O)C(F)(F)F)CC2(Cc1cccc(OC(F)(F)F)c1)c1cccc(OC(F)(F)F)c1` (some centres unmarked) [Example 11], the values for the IC50 (in assay [1]; at recombinant CETP) were 491 nM and 155 nM, respectively.

Take `O[C@H](CN1CC(Cc2cccc(Br)c2)(c2cccc(OC(F)(F)F)c2)c2ccccc21)C(F)(F)F` (stereo partly drawn) [Example 3, (2R)-3-(3-(3-bromobenzyl)-3-(3-(trifluoromethoxy)phenyl)indolin-1-yl)-1,1,1-trifluoropropan-2-ol]: the figures for the IC50 (in assay [1]; at recombinant CETP) were 308 nM and 67 nM, respectively.

Take `O[C@H](CN1CC(Cc2cccc(OC(F)(F)F)c2)(c2ccc(F)c(C(F)(F)F)c2)c2ccccc21)C(F)(F)F` (some centres unmarked) [Example 14]: the half-inhibitory concentration (IC50) amounted to 685 nM in assay [1] and 277 nM at recombinant CETP.

With `O[C@H](CN1CC(Cc2cccc(OC(F)(F)F)c2)(c2cccc(N3CC(F)C3)c2)c2ccccc21)C(F)(F)F` (some centres unmarked) [Example 34], the IC50 in assay [1] stood at 319 nM; at recombinant CETP, 59 nM.

On to `CO[C@H]1CCN(c2cccc(CC3(c4cccc(OC(F)(F)F)c4)CN(C[C@@H](O)C(F)(F)F)c4ccccc43)c2)C1` (some centres unmarked) [Example 49], for which the IC50 in assay [1] worked out at 2100 nM; on recombinant CETP, 197 nM.

Turning to `O=C(O)c1ccc(-c2cccc(C3(Cc4cccc(OC(F)(F)F)c4)CN(C[C@@H](O)C(F)(F)F)c4ccccc43)c2)cc1` (mixture of isomers) [Example 26, 3′-(1-((R)-3,3,3-trifluoro-2-hydroxypropyl)-3-(3-(trifluoromethoxy)-benzyl)indolin-3-yl)-[1,1′-biphenyl]-4-carboxylic acid], the IC50 in assay [1] is 3860 nM; on recombinant CETP it was 1350 nM.

Consider `CS(=O)(=O)c1cccc(CC2(c3cccc(OC(F)(F)F)c3)CN(C[C@@H](O)C(F)(F)F)c3ccccc32)c1` (stereo partly drawn) [Example 46, (2R)-1,1,1-trifluoro-3-(3-(3-(methylsulfonyl)benzyl)-3-(3-(trifluoromethoxy)phenyl)indolin-1-yl)propan-2-ol], for which the IC50 was determined as 8960 nM in assay [1] and 264 nM on recombinant CETP.

As to `O[C@H](CN1CC(Cc2cccc(OC(F)(F)F)c2)(c2ccc(F)c(Cl)c2)c2ccccc21)C(F)(F)F` (some centres unmarked) [Example 19], the IC50 amounted to 3740 nM in assay [1] and 883 nM at recombinant CETP.

Take `CC1(O)CN(c2cccc(CC3(c4cccc(OC(F)(F)F)c4)CN(C[C@@H](O)C(F)(F)F)c4ccccc43)c2)C1` (some centres unmarked) [Example 53]: the results for the IC50 (in assay [1]; on recombinant CETP) were 8050 nM and 680 nM, respectively.

In the case of `C[C@@H]1CN(c2cccc(C3(Cc4cccc(OC(F)(F)F)c4)CN(C[C@@H](O)C(F)(F)F)c4ccccc43)c2)CCO1` (some centres unmarked) [Example 43], the values for the IC50 (in assay [1]; at recombinant CETP) were 932 nM and 97 nM, respectively.

Consider `N#Cc1cccc(CC2(c3cccc(OC(F)(F)F)c3)CN(C[C@@H](O)C(F)(F)F)c3ccccc32)c1` (stereo partly drawn) [Example 45, 3-((1-((R)-3,3,3-trifluoro-2-hydroxypropyl)-3-(3-(trifluoromethoxy)phenyl)indolin-3-yl)methyl)benzonitrile], for which the IC50 in assay [1] came to 917 nM; on recombinant CETP, 171 nM.

In the case of `CO[C@H]1CCN(c2cccc(C3(Cc4cccc(OC(F)(F)F)c4)CN(C[C@@H](O)C(F)(F)F)c4ccccc43)c2)C1` (some centres unmarked) [Example 37], the IC50 in assay [1] worked out at 395 nM; on recombinant CETP, 77 nM.

In the case of `O[C@H](CN1CC(Cc2cccc(OC(F)(F)F)c2)(c2cccc(C(F)(F)F)c2)c2ccccc21)C(F)(F)F` (mixture of isomers) [Example 1, (2R)-1,1,1-trifluoro-3-(3-(3-(trifluoromethoxy)benzyl)-3-(3-(trifluoromethyl)-phenyl)indolin-1-yl)propan-2-ol], the IC50 in assay [1] was 1220 nM; at recombinant CETP, 28 nM.

Take `COC(=O)c1cccc(CC2(c3cccc(OC(F)(F)F)c3)CN(C[C@@H](O)C(F)(F)F)c3ccccc32)c1` (stereo partly drawn) [Example 60, Methyl 3-((1-((R)-3,3,3-trifluoro-2-hydroxypropyl)-3-(3-(trifluoromethoxy)phenyl)indolin-3-yl)methyl)benzoate]: the IC50 was 937 nM in assay [1] and 668 nM on recombinant CETP.

For `O[C@H](CN1CC(Cc2cccc(OC(F)(F)F)c2)(c2cccc(N3CCOCC3)c2)c2ccccc21)C(F)(F)F` (mixture of isomers) [Example 31, (2R)-1,1,1-trifluoro-3-(3-(3-morpholinophenyl)-3-(3-(trifluoromethoxy)benzyl)indolin-1-yl)propan-2-ol], the figures for the IC50 (in assay [1]; at recombinant CETP) were 643 nM and 146 nM, respectively.

`OC1CCN(c2cccc(C3(Cc4cccc(OC(F)(F)F)c4)CN(C[C@@H](O)C(F)(F)F)c4ccccc43)c2)C1` (some centres unmarked) [Example 44]: the IC50 in assay [1] was 2040 nM; on recombinant CETP, 489 nM.

In the case of `O[C@H](CN1CC(Cc2cccc(OC(F)(F)F)c2)(c2cccc(N3CC[C@H](F)C3)c2)c2ccccc21)C(F)(F)F` (some centres unmarked) [Example 41], the IC50 came out at 498 nM in assay [1] and 72 nM at recombinant CETP.

As for `Cc1csc(CC2(c3cccc(OC(F)(F)F)c3)CN(C[C@@H](O)C(F)(F)F)c3c(F)cccc32)n1` (some centres unmarked) [Example 16], the 50% inhibitory concentration (IC50) in assay [1] was 2000 nM; on recombinant CETP, 296 nM.

For the compound `O[C@H](CN1CC(Cc2cccc(N3CC[C@H](F)C3)c2)(c2cccc(OC(F)(F)F)c2)c2ccccc21)C(F)(F)F` (some centres unmarked) [Example 57], the IC50 in assay [1] is 3680 nM; on recombinant CETP, 350 nM.

As for `O[C@H](CN1CC(Cc2cccc(-c3cccc(OC(F)(F)F)c3)c2)(c2cccc(OC(F)(F)F)c2)c2ccccc21)C(F)(F)F` (stereo partly drawn) [Example 47, (2R)-1,1,1-trifluoro-3-(3-((3′-(trifluoromethoxy)-[1,1′-biphenyl]-3-yl)methyl)-3-(3-(trifluoromethoxy)phenyl)indolin-1-yl)propan-2-ol], the IC50 in assay [1] was found to be 2880 nM; on recombinant CETP, 720 nM.

Consider `O[C@H](CN1CC(Cc2cccc(C(F)(F)F)c2)(c2cccc(OC(F)(F)F)c2)c2cccc(F)c21)C(F)(F)F` (some centres unmarked) [Example 17], for which the IC50 stood at 706 nM in assay [1] and 66 nM at recombinant CETP.
